According to PMC3961306, “Comparison of the Cancer Gene Targeting and Biochemical Selectivities of All Targeted Kinase Inhibitors Approved for Clinical Use” (PLoS ONE, 2014):

Legend:
Experiment in all cases: Kinase profiling in a biochemical assay panel (mobility shift assays and ELISA), %-inhibition at 1 μM; selectivity entropy
[1] = target: T1, panel of more than 300 wild-type and mutant kinases (313 kinase panel) (Homo sapiens, UniProt Q12866)
T1 sequence (Q12866 21-999): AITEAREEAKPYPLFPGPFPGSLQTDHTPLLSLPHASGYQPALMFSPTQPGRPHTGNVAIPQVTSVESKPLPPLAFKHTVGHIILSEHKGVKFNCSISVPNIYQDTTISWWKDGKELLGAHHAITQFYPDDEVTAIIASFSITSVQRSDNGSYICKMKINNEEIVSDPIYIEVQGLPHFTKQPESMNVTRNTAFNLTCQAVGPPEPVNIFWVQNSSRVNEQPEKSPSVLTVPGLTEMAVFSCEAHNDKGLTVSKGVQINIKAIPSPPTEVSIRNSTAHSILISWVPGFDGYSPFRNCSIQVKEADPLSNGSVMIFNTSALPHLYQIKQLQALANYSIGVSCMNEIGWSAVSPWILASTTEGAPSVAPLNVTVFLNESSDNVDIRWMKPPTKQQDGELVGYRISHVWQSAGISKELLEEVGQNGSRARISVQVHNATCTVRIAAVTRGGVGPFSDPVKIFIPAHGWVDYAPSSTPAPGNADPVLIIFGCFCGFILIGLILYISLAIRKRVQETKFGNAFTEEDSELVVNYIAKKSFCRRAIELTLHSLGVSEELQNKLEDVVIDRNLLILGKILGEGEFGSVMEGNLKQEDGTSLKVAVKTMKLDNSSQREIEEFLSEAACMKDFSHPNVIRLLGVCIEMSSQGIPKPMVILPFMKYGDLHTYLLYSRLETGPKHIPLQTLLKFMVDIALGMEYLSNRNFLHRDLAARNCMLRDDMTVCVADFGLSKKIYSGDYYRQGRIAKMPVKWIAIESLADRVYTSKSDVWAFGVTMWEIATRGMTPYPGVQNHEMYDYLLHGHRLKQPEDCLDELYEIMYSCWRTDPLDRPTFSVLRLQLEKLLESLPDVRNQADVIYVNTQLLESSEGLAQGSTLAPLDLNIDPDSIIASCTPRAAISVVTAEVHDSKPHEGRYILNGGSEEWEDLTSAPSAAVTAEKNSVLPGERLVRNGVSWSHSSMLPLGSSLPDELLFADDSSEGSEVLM

[2] = target: panel of more than 300 wild-type and mutant kinases (313 kinase panel) (Homo sapiens, UniProt P49760)
[3] = target: T2, panel of more than 300 wild-type and mutant kinases (313 kinase panel) (Homo sapiens, UniProt P53778)
T2 sequence (P53778 1-367): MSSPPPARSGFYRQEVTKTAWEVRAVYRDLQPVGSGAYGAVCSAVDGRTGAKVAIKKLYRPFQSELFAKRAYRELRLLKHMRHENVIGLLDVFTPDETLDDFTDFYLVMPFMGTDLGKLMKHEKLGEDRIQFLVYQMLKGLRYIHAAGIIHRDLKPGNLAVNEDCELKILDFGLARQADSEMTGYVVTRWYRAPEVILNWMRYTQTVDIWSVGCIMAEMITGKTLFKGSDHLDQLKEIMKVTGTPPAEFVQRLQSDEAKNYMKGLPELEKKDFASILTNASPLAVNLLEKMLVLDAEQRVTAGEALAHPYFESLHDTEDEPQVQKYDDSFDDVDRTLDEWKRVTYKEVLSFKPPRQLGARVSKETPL

[4] = target: T3, panel of more than 300 wild-type and mutant kinases (313 kinase panel) (Homo sapiens, UniProt Q9NWZ3)
T3 sequence (Q9NWZ3 1-460): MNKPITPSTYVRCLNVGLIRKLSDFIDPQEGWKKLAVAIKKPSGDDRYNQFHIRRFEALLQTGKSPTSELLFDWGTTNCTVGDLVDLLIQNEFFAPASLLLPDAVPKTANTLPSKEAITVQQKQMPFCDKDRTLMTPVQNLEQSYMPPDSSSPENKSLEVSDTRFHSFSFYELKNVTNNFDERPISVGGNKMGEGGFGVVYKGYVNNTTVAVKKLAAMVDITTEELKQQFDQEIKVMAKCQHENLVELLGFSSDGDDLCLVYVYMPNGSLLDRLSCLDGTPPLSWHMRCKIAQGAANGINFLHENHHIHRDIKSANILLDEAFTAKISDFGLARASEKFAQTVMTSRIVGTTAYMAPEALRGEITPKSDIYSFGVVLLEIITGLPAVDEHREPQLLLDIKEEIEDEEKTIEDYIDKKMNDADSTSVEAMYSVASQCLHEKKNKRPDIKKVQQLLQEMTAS

[5] = target: panel of more than 300 wild-type and mutant kinases (313 kinase panel) (Homo sapiens, UniProt Q9H4B4)
[6] = target: panel of more than 300 wild-type and mutant kinases (313 kinase panel) (Homo sapiens, UniProt Q9Y243)
panel of more than 300 wild-type and mutant kinases (313 kinase panel) (Homo sapiens, UniProt Q9Y243), sequence (Q9Y243 whole entry, change not shown): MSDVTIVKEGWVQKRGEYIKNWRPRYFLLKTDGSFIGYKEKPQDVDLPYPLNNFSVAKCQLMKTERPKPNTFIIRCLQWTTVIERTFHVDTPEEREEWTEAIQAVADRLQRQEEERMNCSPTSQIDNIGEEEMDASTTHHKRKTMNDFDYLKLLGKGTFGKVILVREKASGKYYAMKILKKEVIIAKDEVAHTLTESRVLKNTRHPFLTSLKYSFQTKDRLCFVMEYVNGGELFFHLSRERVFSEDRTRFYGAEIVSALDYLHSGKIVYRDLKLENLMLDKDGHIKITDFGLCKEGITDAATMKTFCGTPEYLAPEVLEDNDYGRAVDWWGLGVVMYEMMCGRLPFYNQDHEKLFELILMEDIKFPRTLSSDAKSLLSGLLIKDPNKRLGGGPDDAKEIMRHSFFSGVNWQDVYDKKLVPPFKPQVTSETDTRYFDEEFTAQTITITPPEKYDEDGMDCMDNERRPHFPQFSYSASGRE

panel of more than 300 wild-type and mutant kinases (313 kinase panel) (Homo sapiens, UniProt Q9H4B4), sequence (Q9H4B4 whole entry, change not shown): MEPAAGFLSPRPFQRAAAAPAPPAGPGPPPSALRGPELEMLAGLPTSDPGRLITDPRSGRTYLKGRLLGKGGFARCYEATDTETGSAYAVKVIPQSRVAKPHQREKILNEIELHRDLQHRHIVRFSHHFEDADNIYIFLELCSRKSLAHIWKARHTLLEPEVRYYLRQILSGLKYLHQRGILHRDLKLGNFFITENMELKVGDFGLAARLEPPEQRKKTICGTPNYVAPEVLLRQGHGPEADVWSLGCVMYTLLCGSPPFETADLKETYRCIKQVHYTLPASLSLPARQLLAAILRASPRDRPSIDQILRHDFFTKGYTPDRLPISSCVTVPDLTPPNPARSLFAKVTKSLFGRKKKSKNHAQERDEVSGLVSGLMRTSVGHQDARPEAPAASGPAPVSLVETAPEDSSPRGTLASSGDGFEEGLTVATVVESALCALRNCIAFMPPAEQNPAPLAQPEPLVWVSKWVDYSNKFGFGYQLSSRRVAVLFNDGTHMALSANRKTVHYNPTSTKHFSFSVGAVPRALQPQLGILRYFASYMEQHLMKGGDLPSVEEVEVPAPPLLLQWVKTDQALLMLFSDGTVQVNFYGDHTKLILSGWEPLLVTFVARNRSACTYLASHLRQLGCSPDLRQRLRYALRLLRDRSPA

| SMILES | %-inhibition of MER ([1]; kinase MER, compound at 1 μM) [%] | %-inhibition, CLK2 ([2]; kinase CLK2, 1 μM compound) [%] | %-inhibition of p38γ ([3]; kinase p38γ, 1 μM) [%] | %-inhibition of IRAK4 ([4]; kinase IRAK4, compound at 1 μM) [%] | %-inhibition of PLK3 ([5]; kinase PLK3, 1 μM) [%] | %-inhibition, AKT3 ([6]; kinase AKT3, 1 μM compound) [%] | %-inhibition, CLK2 ([2]; 1 µM) [%] | %-inhibition of IRAK4 ([4]; 1 µM) [%] | %-inhibition of MER ([1]; 1 µM) [%] | %-inhibition of PLK3 ([5]; 1 µM) [%] | %-inhibition of p38γ ([3]; 1 µM) [%] | %-inhibition, AKT3 ([6]; 1 µM) [%] |
| --- | --- | --- | --- | --- | --- | --- | --- | --- | --- | --- | --- | --- |
| CC(C)(C)c1nc(-c2cccc(NS(=O)(=O)c3c(F)cccc3F)c2F)c(-c2ccnc(N)n2)s1 [dabrafenib] | -0.876 | 0.875 | 0.311 |  |  |  |  |  |  |  |  |  |
| CCCS(=O)(=O)Nc1ccc(F)c(C(=O)c2c[nH]c3ncc(-c4ccc(Cl)cc4)cc23)c1F [vemurafenib] | 6 | -13 | -0.299 | -4.29 | -2.83 | -0.678 |  |  |  |  |  |  |
| Cc1nc(Nc2ncc(C(=O)Nc3c(C)cccc3Cl)s2)cc(N2CCN(CCO)CC2)n1 [dasatinib] |  |  |  |  | 10 |  |  |  |  |  |  |  |
| C[C@@H](Oc1cc(-c2cnn(C3CCNCC3)c2)cnc1N)c1c(Cl)ccc(F)c1Cl [crizotinib] |  | -6 |  | 8 | -2.24 | -1.83 |  |  |  |  |  |  |
| Cc1ccc(C(=O)Nc2ccc(CN3CCN(C)CC3)c(C(F)(F)F)c2)cc1C#Cc1cnc2cccnn12 [ponatinib] |  | -3.36 | 86 | 29 | -11 |  |  |  |  |  |  |  |
| O=S(=O)(c1cccc2cnccc12)N1CCCNCC1 [fasudil] | -2.34 | -0.292 | 1.68 | -4.68 | -4.66 | 6 |  |  |  |  |  |  |
| COc1cc(Nc2c(C#N)cnc3cc(OCCCN4CCN(C)CC4)c(OC)cc23)c(Cl)cc1Cl [bosutinib] |  | -0.431 | -6 | 27 | 0.877 |  |  |  |  |  |  |  |
| CO[C@H]1C[C@@H]2CC[C@@H](C)[C@@](O)(O2)C(=O)C(=O)N2CCCC[C@H]2C(=O)O[C@H]([C@H](C)C[C@@H]2CC[C@@H](OCCO)[C@H](OC)C2)CC(=O)[C@H](C)/C=C(\C)[C@@H](O)[C@@H](OC)C(=O)[C@H](C)C[C@H](C)/C=C/C=C/C=C/1C [everolimus] | -4.24 | -17 | -7 | -6 | -1.66 | -3.39 |  |  |  |  |  |  |
| Cc1ccc(Nc2nccc(N(C)c3ccc4c(C)n(C)nc4c3)n2)cc1S(N)(=O)=O [pazopanib] | 34 | 0.914 | -5 | -0.622 | 9 | -0.112 |  |  |  |  |  |  |
| CNC(=O)c1cc(Oc2ccc(NC(=O)Nc3ccc(Cl)c(C(F)(F)F)c3)c(F)c2)ccn1 [regorafenib] | 29 | -24 | 16 | 1.07 | 2.24 | -4.23 |  |  |  |  |  |  |
| CC(=O)Nc1cccc(-n2c(=O)n(C3CC3)c(=O)c3c(Nc4ccc(I)cc4F)n(C)c(=O)c(C)c32)c1 [trametinib] | -6.62 | -5 | 0.684 | -5 | -6.59 | -5.3 |  |  |  |  |  |  |
| CCN(CC)CCNC(=O)c1c(C)[nH]c(/C=C2\C(=O)Nc3ccc(F)cc32)c1C [sunitinib] |  | 97 |  | 48 |  |  |  |  |  |  |  |  |
| CO[C@H]1C[C@@H]2CC[C@@H](C)[C@@](O)(O2)C(=O)C(=O)N2CCCC[C@H]2C(=O)O[C@H]([C@H](C)C[C@@H]2CC[C@@H](OC(=O)C(C)(CO)CO)[C@H](OC)C2)CC(=O)[C@H](C)/C=C(\C)[C@@H](O)[C@@H](OC)C(=O)[C@H](C)C[C@H](C)/C=C/C=C/C=C/1C [temsirolimus] | -3.24 | -4.4 | -5.48 | -5.36 | -4.39 | -1.72 |  |  |  |  |  |  |
| CS(=O)(=O)CCNCc1ccc(-c2ccc3ncnc(Nc4ccc(OCc5cccc(F)c5)c(Cl)c4)c3c2)o1 [lapatinib] | 6 |  | -1.19 | -2 | 6 | 5 | 3.6 |  |  |  |  |  |
| COc1cc2c(Nc3ccc(Br)cc3F)ncnc2cc1OCC1CCN(C)CC1 [vandetanib] | 45 | -18 | -3.79 |  | -6 | -0.887 |  |  |  |  |  |  |
| COc1cc2nccc(Oc3ccc(NC(=O)C4(C(=O)Nc5ccc(F)cc5)CC4)cc3)c2cc1OC [cabozantinib] | 100 | -5.26 | 23 | -4 | -1.07 | -3 |  |  |  |  |  |  |
| N#CC[C@H](C1CCCC1)n1cc(-c2ncnc3[nH]ccc23)cn1 [ruxolitinib] |  | 15 | -2.39 |  | 13 | 2 |  | -3.69 | -0.749 |  |  |  |
| Cc1cn(-c2cc(NC(=O)c3ccc(C)c(Nc4nccc(-c5cccnc5)n4)c3)cc(C(F)(F)F)c2)cn1 [nilotinib] | -46 | 1.71 | -15 | -29 | 26 | 1.58 |  |  |  |  |  |  |
| C#Cc1cccc(Nc2ncnc3cc(OCCOC)c(OCCOC)cc23)c1 [erlotinib] |  |  |  |  |  |  | 8 | 3 | 10 | 6 | 4.5 | 8 |
